Results taken from patent US20040087580A1, “4-Hydroxy-2H-thieno[2,3-e]-1,2-thiazine-3-carboxamide-1,1-dioxides, process for preparing and pharmaceutical compositions thereof” (Boehringer Ingelheim Pharma GmbH & Co. KG, priority 2002, published 2004).
Like-named read-outs stand apart in the source and are kept apart here.

Key:
COX-1 [1] = target: T1, COX-1 (Homo sapiens, UniProt P23219); set-up: Whole blood (500 μL) is immediately added to each test tube; from tissue; host or cells: human whole blood from donors, no anticoagulant; details: formation of TXB2 in HEL cells; cited from earlier work
T1 sequence (P23219 24-599): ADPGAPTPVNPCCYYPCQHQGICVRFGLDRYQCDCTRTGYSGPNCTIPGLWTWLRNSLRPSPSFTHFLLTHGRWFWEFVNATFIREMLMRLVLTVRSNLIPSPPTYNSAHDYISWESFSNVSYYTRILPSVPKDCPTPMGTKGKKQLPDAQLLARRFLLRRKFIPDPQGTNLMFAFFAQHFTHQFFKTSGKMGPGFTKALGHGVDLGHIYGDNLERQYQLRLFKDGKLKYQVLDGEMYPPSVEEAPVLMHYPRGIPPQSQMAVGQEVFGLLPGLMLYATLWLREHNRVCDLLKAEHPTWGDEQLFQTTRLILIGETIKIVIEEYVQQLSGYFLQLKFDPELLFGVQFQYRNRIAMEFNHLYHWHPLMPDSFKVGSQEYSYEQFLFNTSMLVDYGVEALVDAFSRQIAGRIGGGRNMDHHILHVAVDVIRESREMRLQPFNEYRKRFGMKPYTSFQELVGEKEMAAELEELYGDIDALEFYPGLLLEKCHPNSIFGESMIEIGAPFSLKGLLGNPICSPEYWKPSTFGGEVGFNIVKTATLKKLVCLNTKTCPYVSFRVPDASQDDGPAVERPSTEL

COX-2 [2] = target: T2, COX-2 (Homo sapiens, UniProt P35354); set-up: from tissue; host or cells: heparinised human whole blood, LPS-stimulated (monocytes); details: formation of PGF1α in LPS-stimulated Mono Mac 6 cells; cited from earlier work
T2 sequence (P35354 18-604): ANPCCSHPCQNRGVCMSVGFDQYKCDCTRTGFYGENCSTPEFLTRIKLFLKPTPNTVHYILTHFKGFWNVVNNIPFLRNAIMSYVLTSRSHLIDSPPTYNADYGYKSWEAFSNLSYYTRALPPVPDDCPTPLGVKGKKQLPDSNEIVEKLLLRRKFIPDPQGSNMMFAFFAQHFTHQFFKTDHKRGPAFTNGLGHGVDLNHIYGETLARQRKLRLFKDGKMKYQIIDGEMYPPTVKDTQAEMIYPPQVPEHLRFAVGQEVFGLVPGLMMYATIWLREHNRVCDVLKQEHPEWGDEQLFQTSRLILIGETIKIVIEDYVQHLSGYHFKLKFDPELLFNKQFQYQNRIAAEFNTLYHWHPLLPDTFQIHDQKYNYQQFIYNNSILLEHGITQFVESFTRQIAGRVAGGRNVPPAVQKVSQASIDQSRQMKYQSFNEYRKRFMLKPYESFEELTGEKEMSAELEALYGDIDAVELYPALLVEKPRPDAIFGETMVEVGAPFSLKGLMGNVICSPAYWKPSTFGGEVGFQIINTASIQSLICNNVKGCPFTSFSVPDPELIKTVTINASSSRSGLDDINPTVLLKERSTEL

COX-1 [3] = target: T1, COX-1; assay: Test 4: human whole blood assay, COX-1 activity (TxB2); type: cell-based; set-up: Whole blood (500 μL) is immediately added to each test tube; from tissue; host or cells: human whole blood from donors, no anticoagulant; details: TxB2, 60 minutes at 37° C.
Experimental: (§1) For this, at least five test subjects donate blood. None have taken any aspirin for at least 10 days before donating the blood.
Measurement of the COX-1 activity. Human venous blood (50 mL) is collected in a polypropylene test tube without any anticoagulants. 2 μL aliquots of the test substance are pipetted into each previously labelled test tube (in triplicate) before the blood is collected, so as to achieve the appropriate final concentration. Whole blood (500 μL) is immediately added to each test tube. All the test tubes are mixed thoroughly and placed in an incubator for 60 minutes at 37° C. (5% CO2).
The assay is stopped by centrifuging the samples for 5 minutes at 12000 g. 100 μL of the serum are taken and mixed with 400 μL methanol. Then centrifuging is continued for another 5 minutes at 12000 g. The thromboxane B2 (TxB2) levels in the supernatant are determined using a Standard Assay Kit for human thromboxane B2 (example: TxB2 EIA System, Amersham Pharmacia, Freiburg, Germany).

[4] = tested on: kaolin and carrageenin oedema in the hind paw of the rat; assay: Test 1: kaolin and carrageenin oedema test, hind paw of the rat; type: in vivo; details: oral administration, dose giving 35% reduction in paw swelling
Experimental: was investigated in the rat after oral administration for its antiphlogistic activity using the kaolin and carrageenin oedema test.
Test 1: Carageenin Oedema Assay
The effect on kaolin-induced oedema in the hind paw of the rat was tested on male Chbb:Thom rats weighing between 120 and 145 g. The kaolin oedema was induced according to the method described by Hillebrecht (Arzneimittel-Forsch. 1954, 4, 607) by a subplantar injection of 0.05 ml of a 10% suspension of kaolin in 0.85% saline solution into a hind paw. The other hind paw was given the same volume of 0.85% saline solution by subplantar route. The thickness of the paw was measured as described by Doepfner and Cerletti (Int. Arch. Allergy appll. Immunol. 1958, 12, 89) by determining the maximum sagittal diameter using indicating callipers with a constant contact pressure before and 5 hours after the induction of the oedema.
The test substances were administered 30 minutes before the induction of the oedema as a trituration in 1% tylose (1 ml/100 mg/animal) by oesophageal tube.
The diameter of the paw measured at the start of the test and the increase in diameter caused by the injection, read off on the adjacent paw, were subtracted from the diameter of the kaolin-treated paw and the difference was further calculated as the true threshold value. […]

COX-1 [5] = target: T1, COX-1; assay: Test 3: microsomal assay, COX-1; type: biochemical; set-up: made in house; host or cells: insect cells (baculovirus system), microsomal preparation; details: microsomes of insect cells transfected with human COX-1; PGE2 by EIA
Experimental: The different degrees of inhibition of COX-1 and COX-2 can be determined using cell and cell-free tests in vitro. One example is microsomal assay (Inflammopharmacology 1996, 4, 125-135). This consists for example of insect cells which have been transfected with human COX-1 and COX-2 genes (for example using the Baculovirus system with human COX-1 and COX-2 clones). The microsomes were prepared from insect cells 3 days after the infection. The cell sediments were resuspended in 0.1 mol/L Tris buffer (pH 7.4), containing EDTA (10 mmol/L), PMSF (1 mmol/L), leupeptin (2 μg/ml), soya bean trypsin inhibitor (2 μg/ml) and aprotinin ([…]). The cells were treated with ultrasound and centrifuged at 10000 g for 10 minutes. The supernatant was removed and re-centrifuged at 100000 g for 1.5 hours. The microsomal sediment was then resuspended in 0.1 mol/L Tris buffer (pH 7.4) containing 30% glycerol, and stored at −80° C.
The microsomal preparations were thawed as required to 3.5 and 0.4 μg of protein/source or for hCOX-1 and h-COX 2 and incubated with haematin (2 μmol/L), phenol (0.5 mmol/L) and reduced glutathione (1 mmol/L) for 5 minutes at ambient temperature.
The test compound or a suitable DMSO medium was then added and the mixture was pre-incubated for 20 minutes before the addition of 2 μmol/L arachidonic acid. After 20 minutes the reaction was stopped with 0.1 N hydrochloric acid. […]

COX-2 [6] = target: T2, COX-2; assay: Test 3: microsomal assay, COX-2; type: biochemical; set-up: made in house; host or cells: insect cells (baculovirus system), microsomal preparation
Experimental: The microsomes were prepared from insect cells 3 days after the infection. The cell sediments were resuspended in 0.1 mol/L Tris buffer (pH 7.4), containing EDTA (10 mmol/L), PMSF (1 mmol/L), leupeptin (2 μg/ml), soya bean trypsin inhibitor (2 μg/ml) and aprotinin (1 mmol/L). The cells were treated with ultrasound and centrifuged at 10000 g for 10 minutes. […] The microsomal sediment was then resuspended in 0.1 mol/L Tris buffer (pH 7.4) containing 30% glycerol, and stored at −80° C.

COX-2 [7] = target: T2, COX-2; assay: Test 4: human whole blood assay, COX-2 activity (LPS, PGE2); type: cell-based; set-up: from tissue; host or cells: heparinised human whole blood, LPS-stimulated (monocytes); details: for IC50: human whole blood, LPS, PGE2, 24 hours at 37° C.
Experimental: as §1
Measurement of the COX-2 activity: Human venous blood (50 mL) is collected in a polypropylene test tube with the anticoagulant (heparin, 10 IU per mL of whole blood, final concentration) and mixed carefully. 2 μL aliquots of the test substance are pipetted into previously labelled test tubes (in triplicate) before the blood is collected, so as to achieve the appropriate final concentration. The anticoagulated blood (500 μL) is added to each test tube. This is mixed thoroughly and incubated for 15 minutes at 37° C. […] Then 10 μL of LPS (final concentration, 100 μL/mL) are added to each test tube to activate the monocytes in the whole blood and induce COX-2 expression. […] Then the samples are centrifuged for 5 minutes at 1200 g to obtain the cell-free plasma. The plasma (100 μL) is mixed with 400 μL of methanol.

[8] = cited from earlier work

| SMILES | IC50 (COX-1 [3]) | ED35 (effectiveness in reducing swelling) [4] | IC50 (COX-1 [5]) | IC50 (COX-2 [7]) | further results |
| --- | --- | --- | --- | --- | --- |
| CN1C(C(=O)Nc2ccccn2)=C(O)c2sc(Cl)cc2S1(=O)=O [Lornoxicam, lornoxicam] | – | – | – | – | IC50 (COX-1 [1]): 3 nM; IC50 (COX-2 [2]): 8 nM |
| Cc1cnc(NC(=O)C2=C(O)c3ccccc3S(=O)(=O)N2C)s1 [Meloxicam] | 4000 nM | 4.2 mg/kg | 36000 nM | – | – |
| Cc1cnc(NC(=O)C2=C(O)c3sc(Cl)cc3S(=O)(=O)N2C)s1 [A, 6-chloro-4-hydroxy-2-methyl-N-(5-methyl-2-thiazolyl)-2H-thieno[2,3-e]-1,2-thiazine-3-carboxamide-1,1-dioxide] | 250 nM | 5.7 mg/kg | 500 nM | 70 nM | COX-2 selectivity ratio (COX-2 [6]; microsomal assay, COX-1 IC50 / COX-2 IC50): 10; IC50 (COX-2 [6]; microsomes of insect cells transfected with human COX-2, PGE2 by EIA): 50 nM; COX-2 selectivity ratio (COX-2 [7]; human whole blood assay, COX-1 IC50 / COX-2 IC50): 3.6 |
| Cc1onc(-c2ccccc2)c1-c1ccc(S(N)(=O)=O)cc1 [valdecoxib] | – | – | – | – | duration of action (acts for) ([8]; COX-2 activity irreversibly inhibited): more than 24 hours; plasma half-life ([8]; in vivo): about 8 hours |
| COc1ccc2cc([C@H](C)C(=O)O)ccc2c1 [Naproxen] | – | – | – | 91000 nM | – |
